Test results from patent US9688865B2, “Liquid composition, pigment dispersion liquid, and aqueous ink composition for ink jet recording” (Seiko Epson Corporation, priority 2015, dated 2017).

Columns and labels:
[1] = Distribution coefficient of water-octanol (log P), OECD Test Guideline 107
[2] = physchem

| logP [1] | logP [2] | Structure (SMILES) |
| --- | --- | --- |
| 2.29 | – | CCCCCCCC(=O)OCC(CO)(CO)CO [Pentaerythritol caprylate, pentaerythritol caprylate] |
| – | -2.36 | OCC(CO)(CO)CO [Pentaerythritol] |
